Source: the supplement of paper PMC9763283
Values joined by “and” are separate entries in the source; they are usually repeats but may differ in a detail not shown here. Equal entries are not always repeated. Structures can show the parent of a compound that is named as a salt.

Legend:
Assay in all cases: area under growth-rate inhibition curve (AUC GRI) (dimensionless (GR-based AUC)); higher = less growth inhibition
Settings in all cases: exposure time: 72 h; concentrations: 0.1, 1, 10 uM
MDA-MB-468 = tested on: MDA-MB-468
Summary of the method: (§1)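 Six breast cancer cell line models were used: two triple-negative lines, plus parental HER2+ lines and HER2+ lines resistant to a two-drug combination, each plated at an optimised log-phase density and treated with compound at 0.1, 1 or 10 µM for 72 h. After fixation in 4% paraformaldehyde, nuclei were stained with Hoechst 33342 or DAPI, imaged and counted. Growth was corrected using Day 0 plates, untreated Day 3 plates and DMSO controls, with 2 biological replicates. These corrected counts gave the area under the growth-rate inhibition curve.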

SKBR3-P = tested on: SKBR3-P
Summary of the method: as §1

BT474-P = tested on: BT474-P
Summary of the method: as §1

BT474-LTR = tested on: BT474-LTR
Summary of the method: as §1

MDA-MB-231 = tested on: MDA-MB-231
Summary of the method: as §1

SKBR3-LTR = tested on: SKBR3-LTR
Summary of the method: as §1

| Structure (SMILES) | area under growth-rate inhibition curve (MDA-MB-468) | area under growth-rate inhibition curve (SKBR3-P) | area under growth-rate inhibition curve (BT474-P) | area under growth-rate inhibition curve (BT474-LTR) | area under growth-rate inhibition curve (MDA-MB-231) | area under growth-rate inhibition curve (SKBR3-LTR) |
| --- | --- | --- | --- | --- | --- | --- |
| CC(C)NCC(O)c1ccc(NS(C)(=O)=O)cc1.[Cl-].[H+] (stereo unspecified) [Sotalol] | 1.05 | 1.03 | 1.05 | 1.09 | 1.03 | 1.07 |
| COc1ccc([C@@H]2CC(=O)c3c(O)cc(O)cc3O2)cc1O [Hesperetin] | 0.996 | 1.03 | 1.01 | 1.02 | 1 | 1.02 |
| CN1[C@@H]2CC[C@H]1CC(OC(=O)C1C=Nc3ccccc31)C2.[Cl-].[H+] (stereo partly specified) [Tropisetron] | 1.02 | 0.976 | 1.02 | 1.09 | 1.03 | 1.06 |
| Cc1nn(-c2ccccc2)c(C)c1C=NN1CCN(Cc2ccccc2)CC1 [SANT-1] | 1.02 | 1.04 | 0.98 | 1.08 | 0.992 | 1.05 |
| CC(C)NCC(O)COc1ccc(CCOCC2CC2)cc1.[Cl-].[H+] (stereo unspecified) [Betaxolol hydrochloride (Betoptic)] | 1.04 | 0.98 | 1.02 | 1.1 | 1.05 | 1.06 |
| CN1C2CC(O)CC1C1OC12 (stereo unspecified) [Scopine] | 1.05 | 1.03 | 1.05 | 1.08 | 1.07 | 1.05 |
| CN(C)CCOC(c1ccc(Cl)cc1)c1ccccn1 (stereo unspecified) [carbinoxamine] | 1.04 | 1.03 | 0.999 | 1.04 | 1.04 | 1.06 |
| CC(CCc1ccccc1)NCC(O)c1ccc(O)c(C(N)=O)c1.Cl (stereo unspecified) [Labetalol HCl] | 1.04 | 1.01 | 1.1 | 1.07 | 1.06 | 1.06 |
| Cc1cccc(C(C)c2c[nH]cn2)c1C (stereo unspecified) [Dexmedetomidine] | 1.02 | 1.04 | 1.04 | 1.1 | 1.04 | 1.04 |
| CCC/N=C1\S/C(=C\c2ccc(OC[C@H](O)CO)c(Cl)c2)C(=O)N1c1ccccc1C [Ponesimod] | 1.04 | 0.989 | 0.996 | 1.04 | 1.01 | 1.02 |
| CNS(=O)(=O)Cc1ccc2[nH]cc(CCN(C)C)c2c1.O=C(O)CCC(=O)O [Sumatriptan Succinate] | 1.03 | 1.04 | 1.05 | 1.1 | 1.02 | 1.06 |
| CNS(=O)(=O)CCc1ccc2[nH]cc(C3CCN(C)CC3)c2c1.[Cl-].[H+] [Naratriptan] | 1.04 | 0.994 | 1.04 | 1.04 | 1.02 | 1.06 |
| CNCCCC12CCC(c3ccccc31)c1ccccc12.[Cl-].[H+] [Maprotiline HCl] | 0.96 | 0.982 | 0.984 | 1.02 | 0.967 | 1.02 |
| CCC1(c2c[nH]cn2)Cc2ccccc2C1 [Atipamezole hydrochloride] | 1.02 | 0.985 | 1.04 | 1.11 | 1.03 | 1.07 |
| Oc1ccc2ccc(OCCCCN3CCN(c4cccc5sccc45)CC3)cc2n1 [Brexpiprazole] | 0.99 | 1.03 | 1.04 | 1.05 | 1 | 1.02 |
| COc1ccc(NS(=O)(=O)c2sc3ccc(Cl)cc3c2C)cc1N1CCNCC1 | 0.964 | 0.997 | 0.976 | 1.03 | 1.05 | 1.05 |
| O=C(O[C@H]1C[C@H]2CC[C@@H](C1)[N+]21CCCC1)C(O)(c1ccccc1)c1ccccc1.[Cl-] [Trospium chloride] | 1.06 | 1 | 1.06 | 1.11 | 1.04 | 1.09 |
| CCCCC(=O)O[C@H]1CC[C@H]2[C@@H]3CCc4cc(O)ccc4[C@H]3CC[C@]12C [Estradiol valerate] | 1.03 | 1.02 | 1.04 | 1.05 | 1.01 | 1.05 |
| CCC(COC(=O)c1cc(OC)c(OC)c(OC)c1)(c1ccccc1)N(C)C (stereo unspecified) [Trimebutine] | 0.984 | 1.03 | 0.981 | 0.977 | 0.972 | 1 |
| CC(c1cc2ccccc2s1)N(O)C(N)=O (stereo unspecified) [Zileuton] | 1.05 | 1.04 | 1.04 | 1.07 | 1.04 | 1.05 |
| CN(C)[C@@H](CCOc1cccc2ccccc12)c1ccccc1.[Cl-].[H+] [Dapoxetine HCl] | 0.991 | 0.974 | 0.985 | 1.03 | 1.02 | 1.03 |
| CC(NC(C)(C)C)C(=O)c1cccc(Cl)c1 (stereo unspecified) [Amfebutamone HCl] | 1.01 | 1.01 | 1.02 | 1.03 | 0.987 | 1.03 |
| NC(N)=Nc1nc(CSCCC(N)=NS(N)(=O)=O)cs1 [Famotidine] | 1.05 | 1.03 | 1.02 | 1.09 | 1.02 | 1.08 |
| CCC(=O)O[C@@H](OP(=O)(CCCCc1ccccc1)CC(=O)N1C[C@H](C2CCCCC2)C[C@H]1C(=O)[O-])C(C)C.[Na+] (stereo partly specified) [Fosinopril Sodium] | 1.02 | 1.01 | 1.06 | 1.13 | 1.03 | 1.04 |
| CC(C)C1NC(=O)C(CCCCN)NC(=O)C(Cc2c[nH]c3ccccc23)NC(=O)C(Cc2ccc(O)cc2)NC(=O)C(NC(=O)C(N)Cc2ccc3ccccc3c2)CSSCC(C(=O)NC(C(N)=O)C(C)O)NC1=O (stereo unspecified) [lanreotide] | 1.02 | 1.01 | 1 | 1 | 0.986 | 1.01 |
| Cc1nccn1CC1CCc2c(c3ccccc3n2C)C1=O.[Cl-].[H+] (stereo unspecified) [Ondansetron HCl] | 1.02 | 1.03 | 1.05 | 1.08 | 1.03 | 1.02 |

| Structure (SMILES) | area under growth-rate inhibition curve (MDA-MB-468) | area under growth-rate inhibition curve (SKBR3-P) | area under growth-rate inhibition curve (BT474-P) | area under growth-rate inhibition curve (BT474-LTR) | area under growth-rate inhibition curve (MDA-MB-231) | area under growth-rate inhibition curve (SKBR3-LTR) |
| --- | --- | --- | --- | --- | --- | --- |
| CN1CCC(=C2c3ccccc3C=Cc3ccccc32)CC1.[Cl-].[H+] [Cyproheptadine HCl] | 1 | 1 | 1.03 | 1.03 | 1.02 | 1.09 |
| CCCC(=O)O[C@]1(C(=O)COC(C)=O)CC[C@H]2[C@@H]3C[C@H](F)C4=CC(=O)C=C[C@]4(C)[C@@]3(F)[C@@H](O)C[C@@]21C [Difluprednate] | 1.03 | 0.939 | 0.976 | 1.02 | 0.975 | 1.04 |
| CC1CCN(CCC2CCCN2S(=O)(=O)c2cccc(O)c2)CC1.Cl (stereo unspecified) | 1.02 | 1 | 1.04 | 1.06 | 1.02 | 1.05 |
| CN1CC2c3ccccc3Oc3ccc(Cl)cc3C2C1.O=C(O)C=CC(=O)O (stereo unspecified) [Asenapine] | 0.959 | 0.975 | 1.01 | 1.06 | 1.02 | 0.993 |
| CC(C[N+](C)(C)C)OC(N)=O.[Cl-] (stereo unspecified) [Bethanechol chloride] | 1.04 | 1.03 | 1.05 | 1.11 | 1.03 | 1.07 |
| CCCN1C[C@H](CSC)C[C@@H]2c3cccc4[nH]cc(c34)C[C@H]21.CS(=O)(=O)O [Pergolide mesylate] | 1.02 | 0.978 | 1.02 | 1.06 | 1.02 | 1.02 |
| CCCN[C@H]1CCc2nc(N)sc2C1 [Pramipexole] | 1.05 | 1.01 | 1.07 | 1.1 | 1.03 | 1.08 |
| Cl.Cl.OCCN1CCN(CCCN2c3ccccc3Sc3ccc(C(F)(F)F)cc32)CC1 [Fluphenazine dihydrochloride?] | 1.03 | 1.02 | 1.01 | 1.02 | 1.03 | 1.05 |
| CCc1ccc(OCc2ccccc2C(=O)Nc2ccc3nc(C)cc(N)c3c2)cc1.[Cl-].[H+] [JTC-801] | 0.718 | 0.778 | 0.751 | 0.744 | 0.713 | 0.8 |
| CCC1(c2c[nH]cn2)Cc2ccccc2C1 [Atipamezole] | 1.01 | 1.01 | 1.04 | 1.08 | 1.02 | 1.09 |
| COc1cc2c(cc1OC)CC(=O)N(CCCN(C)CC1Cc3cc(OC)c(OC)cc31)CC2.Cl (stereo unspecified) [Ivabradine HCl] | 1.01 | 1.03 | 1.02 | 1.04 | 1.01 | 1.07 |
| CCN(C)C(=O)Oc1cccc(C(C)N(C)C)c1.O=C(O)C(O)C(O)C(=O)O (stereo unspecified) [Rivastigmine Tartrate] | 1.04 | 1.02 | 1.06 | 1.07 | 1.03 | 1.06 |
| Cl.NC12CC3CC(CC(C3)C1)C2 [Amantadine HCl] | 1.02 | 1.05 | 1.05 | 1.08 | 1.03 | 1.05 |
| CN1C[C@H](C(=O)N[C@]2(C)O[C@@]3(O)[C@@H]4CCCN4C(=O)[C@H](Cc4ccccc4)N3C2=O)C[C@@H]2c3cccc4[nH]cc(c34)C[C@H]21.CS(=O)(=O)O [Dihydroergotamine mesylate] | 1.02 | 0.947 | 0.974 | 1.01 | 0.986 | 1.05 |
| Cc1ccc(C2OC(CO)C(O)C(O)C2O)cc1Cc1ccc(-c2ccc(F)cc2)s1 (stereo unspecified) [Canagliflozin] | 1 | 1.03 | 1.02 | 1.07 | 1.02 | 1.05 |
| NCCc1ccc(O)c(O)c1.[Cl-].[H+] [Dopamine HCl] | 1.03 | 1.02 | 1.04 | 1.11 | 1.02 | 1.07 |
| CCCCCCCCOc1ccccc1C(=O)Nc1ccc(C(=O)OCC[N+](C)(CC)CC)cc1.[Br-] [Otilonium Bromide] | 0.947 | 1 | 0.939 | 1.07 | 1.04 | 1.01 |
| CCN(CC)C(=O)c1ccc(C2=CC3(CCNCC3)Oc3cccc(O)c32)cc1.Cl [ADL5859 HCl] | 1.04 | 1.03 | 1.05 | 1.07 | 1.03 | 1.1 |
| CCC(=O)O[C@@]1(C(=O)SCF)[C@H](C)CC2C3CC(F)C4=CC(=O)C=C[C@]4(C)[C@]3(F)C(O)C[C@@]21C (stereo partly specified) [Fluticasone propionate] | 1.04 | 0.915 | 0.985 | 1.04 | 0.973 | 1.05 |
| CC(C(O)c1ccc(O)cc1)N1CCC(Cc2ccccc2)CC1.CC(C(O)c1ccc(O)cc1)N1CCC(Cc2ccccc2)CC1.O=C(O)C(O)C(O)C(=O)O (stereo unspecified) [Ifenprodil Tartrate] | 0.985 | 0.985 | 1.02 | 1.01 | 1.04 | 0.997 |
| O=C(O)C=CC(=O)O.OCCOCCN1CCN(C2=Nc3ccccc3Sc3ccccc32)CC1.OCCOCCN1CCN(C2=Nc3ccccc3Sc3ccccc32)CC1 [Quetiapine Fumarate] | 1.02 | 1.04 | 1.03 | 1.07 | 1.02 | 1.07 |
| CC12CCC(=O)C=C1C1CC1C1C2CCC2(C)C1C1CC1C21CCC(=O)O1 (stereo unspecified) [Drospirenone] | 1.05 | 1.03 | 1.04 | 1.09 | 1.01 | 1.05 |
| Cc1cncc(CN2CCC(=C3c4ccc(Cl)cc4CCc4cccnc43)CC2)c1.O=C(O)/C=C/C(=O)O [Rupatadine Fumarate] | 0.972 | 0.966 | 0.974 | 1.05 | 1.05 | 1.03 |
| CNC(=NCCSCc1nc[nH]c1C)NC#N [Cimetidine] | 1.04 and 1.03 | 1.02 | 1.02 and 1.06 | 1.05 and 1.12 | 1.04 and 1.05 | 1.05 and 1.06 |
| CCC(c1cccc(O)c1)C(C)CN(C)C (stereo unspecified) [Tapentadol] | 1 | 1.01 | 1.01 | 1.01 | 0.986 | 1 |
